The results in this text go back to patent publication US4002752A, “Piperazinylimino rifamycins” (Gruppo Lepetit S.p.A., priority 1975, dated 1977).

The structures appear in SMILES notation. Values after ≈ are worked out from the molar mass of the structure shown. A value given as a limit tells only on which side of the number the result lay.

Usually LD50 stands for the dose at which mortality reaches 50%. One may read the MIC as the smallest concentration in the dilution series that meets the test's criterion for growth inhibition. A lower MIC goes with a more susceptible organism. For orientation: ED50 means the dose that gives a 50% effect, or the effect in half of the subjects. Read a high ED50 as weaker potency.

Data set [1] can be described thus: in vivo. The settings on record: mouse.
The subject of data set [2] is Mycobacterium tuberculosis H37 Rv. Description: minimal inhibitory concentration in vitro against Mycobacterium tuberculosis H37 Rv. In kind it is cell-based. The settings on record: H37RV. The procedure:
For instance, the value of the minimal inhibitory concentration in vitro of the "cyclopentyl derivative" against Mycobacterium tuberculosis H37 Rv is 0.05 μg/ml, while that of rifampicin is 0.5 μg/ml.

Data set [3] shares this test system. Description: survival time of mice infected with Mycobacterium tuberculosis H37 Rv. In kind it is in vivo. The settings on record: once a week administration per os versus daily administration of rifampicin at the same dose level. The text has this:
The unexpected biological characteristics of the novel rifamycins have been evidenced by considering the survival time after a daily administration of rifampicin in comparison with a once a week administration of the same dose level per os of 3-(4-cyclopentyl-1-piperazinyl)iminomethylrifamycin SV (hereinafter referred to as "cyclopentyl derivative") to mice infected with Mycobacterium tuberculosis H37 Rv.

Data set [4] is described as follows: toxicity in mice (LD50). The settings on record: mouse, in vivo.
Data set [5] concerns Staphylococcus aureus. Description: experimental Staphylococcus aureus infections in mice. In kind it is in vivo. The settings on record: po; Staphylococcus aureus infection in mice.

On to `COC1C=COC2(C)Oc3c(C)c(O)c4c(O)c(c(C=NN5CCN(C6CCCC6)CC5)c(O)c4c3C2=O)NC(=O)C(C)=CC=CC(C)C(O)C(C)C(O)C(C)C(OC(C)=O)C1C` (stereo not drawn) [cyclopentyl derivative, 3-(4-cyclopentyl-1-piperazinyl)iminomethylrifamycin SV], for which the LD50 is more than 750 mg/kg in data set [1] (ip) and more than 2000 mg/kg in data set [1] (po). The same compound returned an MIC in data set [2] of 0.05 µg/mL (≈ 0.057 µM). In addition, in data set [3], the survival time result was “about the same survival time”.

`CO[C@H]1/C=C/O[C@@]2(C)Oc3c(C)c(O)c4c(O)c(c(/C=N/N5CCN(C)CC5)c(O)c4c3C2=O)NC(=O)/C(C)=C\C=C\[C@H](C)[C@H](O)[C@@H](C)[C@@H](O)[C@@H](C)[C@H](OC(C)=O)[C@@H]1C` [rifampicin]: the LD50 amounted to 416 mg/kg in data set [4] (ip) and 907 mg/kg in data set [4] (po).

In data set [5], `COC1C=COC2(C)Oc3c(C)c(O)c4c(O)c(c(C=NN5CCN(C6CCC6)CC5)c(O)c4c3C2=O)NC(=O)C(C)=CC=CC(C)C(O)C(C)C(O)C(C)C(OC(C)=O)C1C` (stereo not drawn) [cyclobutyl derivative, 3-(4-cyclobutyl-1-piperazinyl)iminomethylrifamycin SV] showed an ED50 of 0.16 mg/kg. Also, the values for the LD50 in data set [1] (ip) and in data set [1] (po) were more than 650 mg/kg and more than 2000 mg/kg, respectively.
